Experimental data: patent US20250282779A1, “SUBSTITUTED 5,6,7,8-TETRAHYDROPYRIDO[2,3-D]PYRIMIDINE-2,4-DIONES FOR TREATING CARDIAC DISEASES” (MYOKARDIA, INC., priority 2018, published 2025)
Read-outs that look alike come from different tables or passages of the source.

Tests used:
[1] = target: bovine cardiac myosin (Bos taurus (Bovine), UniProt Q9BE39); experiment: Myosin inhibition assay (bcMF pCa 6 IC50); assay type: biochemical; details: bovine cardiac myofibrils, calcium giving 50% activation
Method: Myosin inhibition assay (bcMF pCa 6IC50 (μM))
Small molecule agents were assessed for their ability to inhibit the enzymatic activity of bovine cardiac myosin using a biochemical assay that couples the release of ADP (adenosine diphosphate) from cardiac myosin to an enzymatic coupling system consisting of pyruvate kinase and lactate dehydrogenase (PK/LDH) and monitoring the absorbance decrease of NADH (at 340 nm) as a function of time. PK converts ADP to ATP (adenosine triphosphate) by converting PEP (phosphoenolpyruvate) to pyruvate. Pyruvate is then converted to lactate by LDH by converting NADH (nicotinamide adenine dinucleotide) to NAD (oxidized nicotinamide adenine dinucleotide). The source of cardiac myosin was from bovine heart in the form of skinned myofibrils. Prior to testing small molecule agents, the bovine myofibrils were assessed for their calcium responsiveness and the calcium concentration that achieves a 50% activation of the myofibril system was chosen as the final condition for assessing the inhibitory activity of the small molecule agents. All enzymatic activity was measured in a buffered solution containing 12 mM PIPES (piperazine-N,N′-bis(2-ethanesulfonic acid), 2 mM magnesium chloride at pH 6.8 (PM12 buffer). Final assay conditions were 1 mg/mL of bovine cardiac myofibrils, 0.4 mM PK/LDH, 50 uM ATP, 0.1 mg/mL BSA (bovine serum albumin), 10 ppm antifoam, 2 mM BME, 0.5 mM NADH, and 1.5 mM PEP at the desired free calcium concentration required to achieve 50% activation of the myofibrils.
A dilution series of compound was created in DMSO such that the final desired concentration of compound would be achieved in a volume of 30 μL with a fixed DMSO concentration of 3.3% (v/v). Typically 1 μL of the dilution series were added to 384 well plate to achieve a 10 point dose response. Following the addition of 14 μL of a solution containing bovine cardiac myofibrils, PK/LDH and a solution of calcium (that achieved 50% activation), the enzymatic reaction was started with the addition of 15 μL of a solution containing ATP, PEP and NADH. The reaction progress was followed in a PerkinElmer Envision plate reader at ambient temperature using clear bottom plates. The plate reader was configured to read absorbance at 340 nm in kinetics mode for 15 minutes. Data were recorded as the slope of the absorbance response to time. The slopes of the absorbance response as a function of time were normalized to slopes on the plate containing DMSO. This normalized rate was then plotted as a function of small molecule concentration and the data was fitted to a four-parameter fit using EXCEL XLfit. The IC50 is the concentration at which fifty percent of the total response is inhibited.

[2] = system: adult rat ventricular myocytes; experiment: Cardiomyocyte contractility assay; assay type: cell-based; details: 0.3 μM compound; for inhibition at 0.3 µM: Rattus norvegicus, Ventricular myocyte, fractional shortening, myocytes paced at 1 Hz, read-out: % inhibition of FS at 0.3 μM
Method: Cardiomyocyte Contractility Assay
Contractility of adult rat ventricular myocytes is determined by edge detection with an IonOptix contractility system. Aliquots of myocytes in Tyrode buffer (137 mM NaCl, 3.7 mM KCL, 0.5 mM MgCl2, 1.5 mM CaCl2, 4 mM HEPES, 11 mM glucose) are placed in a perfusion chamber (Series 20 RC-27NE; Warner Instruments), allowed to adhere to the coverslip, and then perfused with 37° C. Tyrode buffer. Myocytes are filed stimulated at 1 Hz and 10V. Only myocytes with clear striations, quiescent prior to pacing, with a cell length of 120-180 microns, a basal fractional shortening equal to 3-8% of the cell length, and a contraction velocity greater than 100 microns per second are used for contractility experiments. To determine the response to compounds (at 0.3 μM concentration), myocytes are first perfused for 60 seconds with Tyrodes buffer followed by 5 min of compound and a 140 second washout with Tyrodes buffer. Data is continuously recorded using IonOptix software. Contractility data is analyzed using Ionwizard software (IonOptix). For each cell, 10-20 contractility transients were averaged and compared under basal (no compound) and compound-treated conditions. Compound activity is measured by effects on fractional shortening (FS), where fractional shortening is the ratio of the peak length of the cell at contraction divided by the basal cell length normalized to 100% for an untreated cell. The % inhibition measurement is calculated by subtracting the FS value from 100%.

Sequence of bovine cardiac myosin (Q9BE39 whole entry): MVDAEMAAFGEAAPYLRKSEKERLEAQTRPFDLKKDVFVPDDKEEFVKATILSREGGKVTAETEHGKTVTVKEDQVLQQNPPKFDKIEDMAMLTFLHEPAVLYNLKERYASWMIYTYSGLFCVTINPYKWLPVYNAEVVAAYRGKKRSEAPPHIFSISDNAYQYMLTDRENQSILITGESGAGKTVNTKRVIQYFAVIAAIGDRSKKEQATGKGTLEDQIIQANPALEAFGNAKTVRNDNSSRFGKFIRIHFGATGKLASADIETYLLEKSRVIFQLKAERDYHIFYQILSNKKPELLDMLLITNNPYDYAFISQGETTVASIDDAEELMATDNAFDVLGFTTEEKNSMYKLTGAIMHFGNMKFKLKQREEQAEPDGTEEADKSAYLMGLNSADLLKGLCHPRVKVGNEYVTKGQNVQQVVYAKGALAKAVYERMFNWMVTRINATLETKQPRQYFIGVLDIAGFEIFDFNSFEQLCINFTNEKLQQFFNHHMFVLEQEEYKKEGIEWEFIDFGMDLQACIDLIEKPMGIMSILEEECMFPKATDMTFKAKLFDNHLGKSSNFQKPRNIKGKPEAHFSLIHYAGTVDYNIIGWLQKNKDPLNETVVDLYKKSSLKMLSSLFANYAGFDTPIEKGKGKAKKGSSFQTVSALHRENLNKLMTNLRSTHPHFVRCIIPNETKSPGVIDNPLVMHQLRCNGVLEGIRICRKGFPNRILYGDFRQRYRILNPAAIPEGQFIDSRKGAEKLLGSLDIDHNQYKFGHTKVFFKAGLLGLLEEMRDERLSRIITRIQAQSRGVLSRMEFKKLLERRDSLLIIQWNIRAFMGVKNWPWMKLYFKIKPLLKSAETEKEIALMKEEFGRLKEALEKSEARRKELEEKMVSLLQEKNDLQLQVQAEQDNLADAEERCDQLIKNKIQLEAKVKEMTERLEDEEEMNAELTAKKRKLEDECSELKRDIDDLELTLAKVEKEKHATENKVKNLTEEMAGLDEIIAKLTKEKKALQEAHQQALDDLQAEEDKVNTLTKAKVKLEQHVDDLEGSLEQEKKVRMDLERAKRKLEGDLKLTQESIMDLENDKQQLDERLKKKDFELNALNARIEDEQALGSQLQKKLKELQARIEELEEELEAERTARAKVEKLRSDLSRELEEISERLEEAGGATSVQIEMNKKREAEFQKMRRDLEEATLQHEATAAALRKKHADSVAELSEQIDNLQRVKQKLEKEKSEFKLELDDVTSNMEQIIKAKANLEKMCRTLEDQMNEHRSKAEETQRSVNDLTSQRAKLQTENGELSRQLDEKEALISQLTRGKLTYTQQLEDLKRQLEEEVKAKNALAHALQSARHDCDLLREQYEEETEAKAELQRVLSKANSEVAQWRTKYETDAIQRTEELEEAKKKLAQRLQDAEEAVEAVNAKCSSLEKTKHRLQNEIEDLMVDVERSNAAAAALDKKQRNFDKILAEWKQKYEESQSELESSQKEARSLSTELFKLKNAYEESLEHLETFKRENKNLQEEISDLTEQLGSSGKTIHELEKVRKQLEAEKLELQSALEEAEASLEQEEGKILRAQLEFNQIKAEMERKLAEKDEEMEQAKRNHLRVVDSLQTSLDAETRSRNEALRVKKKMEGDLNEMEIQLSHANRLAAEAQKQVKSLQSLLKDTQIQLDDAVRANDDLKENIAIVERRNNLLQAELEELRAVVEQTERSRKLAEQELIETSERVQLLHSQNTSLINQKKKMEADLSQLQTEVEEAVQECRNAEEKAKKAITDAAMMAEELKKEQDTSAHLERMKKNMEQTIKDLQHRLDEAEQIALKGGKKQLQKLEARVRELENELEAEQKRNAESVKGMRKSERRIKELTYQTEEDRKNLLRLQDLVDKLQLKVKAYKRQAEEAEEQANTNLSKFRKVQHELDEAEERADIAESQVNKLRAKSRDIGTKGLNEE
Sequence of bovine cardiac myosin (P85100 whole entry partner): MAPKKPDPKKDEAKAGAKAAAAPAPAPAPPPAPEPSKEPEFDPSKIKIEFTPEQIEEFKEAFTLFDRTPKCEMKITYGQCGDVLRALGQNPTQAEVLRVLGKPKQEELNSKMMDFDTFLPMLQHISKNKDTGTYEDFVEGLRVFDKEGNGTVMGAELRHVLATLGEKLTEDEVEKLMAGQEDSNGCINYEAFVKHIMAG
Sequence of bovine cardiac myosin (Q3SZE5 whole entry partner): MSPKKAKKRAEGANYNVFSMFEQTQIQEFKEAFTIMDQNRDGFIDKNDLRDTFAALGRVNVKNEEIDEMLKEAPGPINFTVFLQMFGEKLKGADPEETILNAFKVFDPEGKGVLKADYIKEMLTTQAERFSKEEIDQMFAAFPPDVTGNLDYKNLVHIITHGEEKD

| IC50 ([1]; read-out: bcMF pCa 6 IC50) [nM] | IC50 ([1]; read-out: bcMF pCa_6 IC50 MEAN) [nM] | observation in cardiomyocyte contractility assay [2] | Compound | inhibition at 0.3 µM [2] [%] |
| --- | --- | --- | --- | --- |
| 1110 | 1110 | – | Cc1ccc(F)c([C@@H]2Nc3[nH]c(=O)n(C4CCOCC4)c(=O)c3C[C@@H]2F)c1 [Compound 3, (6S,7S)-6-fluoro-7-(2-fluoro-5-methylphenyl)-3-(tetrahydro-2H-pyran-4-yl)-5,6,7,8-tetrahydropyrido[2,3-d]pyrimidine-2, 4 (1H, 3H)-dione] | > 66 |
| 1570 | – | Early after depolarization or EAD | O=c1[nH]c2c(c(=O)n1C1CCOCC1)CC(F)(F)[C@H](c1cccc(F)c1)N2 [Compound C-1, (S)-6,6-difluoro-7-(3-fluorophenyl)-3-(tetrahydro-2H-pyran-4-yl)-5,6,7,8-tetrahydropyrido[2,3-d]pyrimidine-2,4(1H,3H)-dione, reference compound] | 33 to 66 |
